# Results reported in US6358885B1, “Substituted phenylheterocyclic herbicides” (Mississippi State University, priority 1992, dated 2002).
# Experiments:
# [1] = test system: barnyardgrass; test: Test B preemergence/postemergence greenhouse plant response rating 0 to 10; type: in vivo, Echinochloa crus-galli; details: for Plant response rating, Barnyardgrass: 0 to 10 scale
# In short: (§1)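 Test chemicals were sprayed onto freshly planted seed and, concurrently, onto young plants between the one and four leaf stage. After a twelve- to sixteen-day greenhouse period, each species was visually compared with untreated controls.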
# [2] = test system: chickweed; test: as above; type: in vivo, Stellaria media; details: for Plant response rating, Chickweed: 0 to 10 scale
# In short: as §1
# [3] = test system: rape; test: as above; type: in vivo, Brassica napus; details: for Plant response rating, Rape: 0 to 10 scale
# In short: as §1
# [4] = test system: wild buckwheat; test: as above; type: in vivo, Polygonum convolvulus; details: for Plant response rating, Wild buckwheat: 0 to 10 scale
# In short: as §1
# [5] = test system: bedstraw; test: Test C preemergence/postemergence greenhouse plant response rating 0 to 100; type: in vivo, Galium aparine; details: for Plant response rating, Bedstraw: 125 g/ha, 0 to 100 scale
# Text: (§2) The compounds evaluated in this test were formulated in a non-phytoxic solvent and applied to the soil surface before plant seedlings emerged (preemergence application), to water that covered the soil surface (flood application), and to plants that were in the one-to-four leaf stage (postemergence application). A sandy loam soil was used for the preemergence and postemergence tests, while a silt loam soil was used in the flood test. Water depth was approximately 2.5 cm for the flood test and was maintained at this level for the duration of the test. Plant species in the preemergence and postemergence tests consisted of barley (Hordeum vulgare), bedstraw (Galium aparine), blackgrass (Alopecurus myosuroides), chickweed (Stellaria media), corn (Zea mays), cotton (Gossypium hirsutum), crabgrass (Digitaria sanguinalis), downy brome (Bromus tectorum), giant foxtail (Setaria faberii), lambsquarters (Chenopodium album), morningglory (Ipomoea hederacea), pigweed ([…]), rape (Brassica napus), ryegrass (Lolium multiflorum), sorghum (Sorghum bicolor), soybean (Glycine max), speedwell (Veronica persica), sugar beet (Beta vulgaris), velvetleaf (Abutilon theophrasti), wheat (Triticum aestivum), wild buckwheat (Polygonum convolvulus), and wild oat (Avena fatua). All plant species were planted one day before application of the compound for the preemergence portion-of this test. Plantings of these species were adjusted to produce plants of appropriate size for the post-emergence portion of the test. […] All plant species were grown using normal greenhouse practices. Visual evaluations of injury expressed on treated plants, when compared to untreated controls, were recorded approximately fourteen to twenty one days after application of the test compound. […] A dash (-) response means no test result.
# [6] = test system: corn; test: as above; type: in vivo, Zea mays; details: for Plant response rating, Corn: 125 g/ha, 0 to 100 scale
# Text: as §2
# [7] = test system: crabgrass; test: as above; type: in vivo, Digitaria sanguinalis; details: for Plant response rating, Crabgrass: 125 g/ha, 0 to 100 scale
# Text: as §2
# [8] = test system: downy brome; test: as above; type: in vivo, Bromus tectorum; details: for Plant response rating Downy Brome: 125 g/ha, 0 to 100 scale
# Text: as §2
# [9] = test system: ryegrass; test: as above; type: in vivo, Lolium multiflorum; details: for Plant response rating Ryegrass: 125 g/ha, 0 to 100 scale
# Text: as §2
# [10] = test system: sugar beet; test: as above; type: in vivo, Beta vulgaris; details: for Plant response rating, Sugar beet: 125 g/ha, 0 to 100 scale
# Text: as §2
# [11] = test system: wild oat; test: as above; type: in vivo, Avena fatua; details: for Plant response rating, Wild oat: 125 g/ha, 0 to 100 scale
# Text: as §2
# [12] = test system: umbrella sedge; test: Test C flood test plant response rating 0 to 100; type: in vivo, Cyperus difformis
# Text: as §2
smiles,measurement,setting,value
CCOCOc1cc(-c2nn3c(c2Cl)CCCC3)c(F)cc1Cl [Compound 59],"Plant response rating, Barnyardgrass","[1]; POSTEMERGENCE, Rate 50 g/ha",5
same,"Plant response rating, Barnyardgrass","[1]; PREEMERGENCE, Rate 50 g/ha",6
same,"Plant response rating (0 to 10 scale), Barnyardgrass","[1]; PREEMERGENCE, Rate 200 g/ha",8
same,"Plant response rating, Barnyardgrass","[1]; Rate 200 g/ha, POSTEMERGENCE",9
same,"Plant response rating, Chickweed","[2]; POSTEMERGENCE, Rate 50 g/ha",6
same,"Plant response rating, Chickweed","[2]; PREEMERGENCE, Rate 50 g/ha",4
same,"Plant response rating (0 to 10 scale), Chickweed","[2]; PREEMERGENCE, Rate 200 g/ha",9
same,"Plant response rating, Chickweed","[2]; Rate 200 g/ha, POSTEMERGENCE",8
same,"Plant response rating, Rape","[3]; POSTEMERGENCE, Rate 50 g/ha",10
same,"Plant response rating, Rape","[3]; PREEMERGENCE, Rate 50 g/ha",5
same,"Plant response rating (0 to 10 scale), Rape","[3]; PREEMERGENCE, Rate 200 g/ha",10
same,"Plant response rating, Rape","[3]; Rate 200 g/ha, POSTEMERGENCE",10
same,"Plant response rating, Wild buckwheat","[4]; POSTEMERGENCE, Rate 50 g/ha",10
same,"Plant response rating, Wild buckwheat","[4]; PREEMERGENCE, Rate 50 g/ha",10
same,"Plant response rating (0 to 10 scale), Wild buckwheat","[4]; PREEMERGENCE, Rate 200 g/ha",10
same,"Plant response rating, Wild buckwheat","[4]; Rate 200 g/ha, POSTEMERGENCE",10
same,"Plant response rating, Bedstraw",[5]; POSTEMERGENCE,100
same,"Plant response rating (0 to 100), Bedstraw","[5]; POSTEMERGENCE, Rate 2 g/ha",50
same,"Plant response rating, Bedstraw",[5]; PREEMERGENCE,70
same,"Plant response rating (0 to 100), Bedstraw","[5]; PREEMERGENCE, Rate 2 g/ha",0
same,"Plant response rating (0 to 100), Bedstraw","[5]; Rate 8 g/ha, POSTEMERGENCE",75
same,"Plant response rating (0 to 100), Bedstraw","[5]; Rate 8 g/ha, PREEMERGENCE",0
same,"Plant response rating (0 to 100), Bedstraw","[5]; Rate 31 g/ha, POSTEMERGENCE",100
same,"Plant response rating (0 to 100), Bedstraw","[5]; Rate 31 g/ha, PREEMERGENCE",50
same,"Plant response rating, Corn",[6]; POSTEMERGENCE,65
same,"Plant response rating (0 to 100), Corn","[6]; POSTEMERGENCE, Rate 2 g/ha",30
same,"Plant response rating, Corn",[6]; PREEMERGENCE,0
same,"Plant response rating (0 to 100), Corn","[6]; PREEMERGENCE, Rate 2 g/ha",0
same,"Plant response rating (0 to 100), Corn","[6]; Rate 8 g/ha, POSTEMERGENCE",40
same,"Plant response rating (0 to 100), Corn","[6]; Rate 8 g/ha, PREEMERGENCE",0
same,"Plant response rating (0 to 100), Corn","[6]; Rate 31 g/ha, POSTEMERGENCE",50
same,"Plant response rating (0 to 100), Corn","[6]; Rate 31 g/ha, PREEMERGENCE",0
same,"Plant response rating, Crabgrass",[7]; POSTEMERGENCE,70
same,"Plant response rating (0 to 100), Crabgrass","[7]; POSTEMERGENCE, Rate 2 g/ha",10
same,"Plant response rating, Crabgrass",[7]; PREEMERGENCE,90
same,"Plant response rating (0 to 100), Crabgrass","[7]; PREEMERGENCE, Rate 2 g/ha",0
same,"Plant response rating (0 to 100), Crabgrass","[7]; Rate 8 g/ha, POSTEMERGENCE",30
same,"Plant response rating (0 to 100), Crabgrass","[7]; Rate 8 g/ha, PREEMERGENCE",0
same,"Plant response rating (0 to 100), Crabgrass","[7]; Rate 31 g/ha, POSTEMERGENCE",40
same,"Plant response rating (0 to 100), Crabgrass","[7]; Rate 31 g/ha, PREEMERGENCE",30
same,Plant response rating Downy Brome,[8]; POSTEMERGENCE,90
same,"Plant response rating (0 to 100), Downy Brome","[8]; POSTEMERGENCE, Rate 2 g/ha",20
same,Plant response rating Downy Brome,[8]; PREEMERGENCE,60
same,"Plant response rating (0 to 100), Downy Brome","[8]; PREEMERGENCE, Rate 2 g/ha",0
same,"Plant response rating (0 to 100), Downy Brome","[8]; Rate 8 g/ha, POSTEMERGENCE",50
same,"Plant response rating (0 to 100), Downy Brome","[8]; Rate 8 g/ha, PREEMERGENCE",0
same,"Plant response rating (0 to 100), Downy Brome","[8]; Rate 31 g/ha, POSTEMERGENCE",70
same,"Plant response rating (0 to 100), Downy Brome","[8]; Rate 31 g/ha, PREEMERGENCE",30
same,Plant response rating Ryegrass,[9]; POSTEMERGENCE,80
same,"Plant response rating (0 to 100), Ryegrass","[9]; POSTEMERGENCE, Rate 2 g/ha",10
same,Plant response rating Ryegrass,[9]; PREEMERGENCE,90
same,"Plant response rating (0 to 100), Ryegrass","[9]; PREEMERGENCE, Rate 2 g/ha",0
same,"Plant response rating (0 to 100), Ryegrass","[9]; Rate 8 g/ha, POSTEMERGENCE",20
same,"Plant response rating (0 to 100), Ryegrass","[9]; Rate 8 g/ha, PREEMERGENCE",20
same,"Plant response rating (0 to 100), Ryegrass","[9]; Rate 31 g/ha, POSTEMERGENCE",40
same,"Plant response rating (0 to 100), Ryegrass","[9]; Rate 31 g/ha, PREEMERGENCE",50
same,"Plant response rating, Sugar beet",[10]; POSTEMERGENCE,100
same,"Plant response rating (0 to 100), Sugar beet","[10]; POSTEMERGENCE, Rate 2 g/ha",90
same,"Plant response rating, Sugar beet",[10]; PREEMERGENCE,100
same,"Plant response rating (0 to 100), Sugar beet","[10]; PREEMERGENCE, Rate 2 g/ha",0
same,"Plant response rating (0 to 100), Sugar beet","[10]; Rate 8 g/ha, POSTEMERGENCE",100
same,"Plant response rating (0 to 100), Sugar beet","[10]; Rate 8 g/ha, PREEMERGENCE",30
same,"Plant response rating (0 to 100), Sugar beet","[10]; Rate 31 g/ha, POSTEMERGENCE",100
same,"Plant response rating (0 to 100), Sugar beet","[10]; Rate 31 g/ha, PREEMERGENCE",50
same,"Plant response rating, Wild oat",[11]; POSTEMERGENCE,60
same,"Plant response rating (0 to 100), Wild oat","[11]; POSTEMERGENCE, Rate 2 g/ha",10
same,"Plant response rating, Wild oat",[11]; PREEMERGENCE,30
same,"Plant response rating (0 to 100), Wild oat","[11]; PREEMERGENCE, Rate 2 g/ha",0
same,"Plant response rating (0 to 100), Wild oat","[11]; Rate 8 g/ha, POSTEMERGENCE",30
same,"Plant response rating (0 to 100), Wild oat","[11]; Rate 8 g/ha, PREEMERGENCE",0
same,"Plant response rating (0 to 100), Wild oat","[11]; Rate 31 g/ha, POSTEMERGENCE",40
same,"Plant response rating (0 to 100), Wild oat","[11]; Rate 31 g/ha, PREEMERGENCE",0
same,"Plant response rating (0 to 100), Umbrella sedge","[12]; POSTEMERGENCE section, flood test, Rate 2 g/ha",90
same,"Plant response rating (0 to 100), Umbrella sedge","[12]; Rate 8 g/ha, under POSTEMERGENCE head (flood test species)",0
same,"Plant response rating (0 to 100), Umbrella sedge","[12]; Rate 31 g/ha, under POSTEMERGENCE head (flood test species)",0
same,Plant response rating Umbrella sedge,"[12]; flood test species listed under POSTEMERGENCE, 125 g/ha, 0 to 100 scale",0
